# Patent US20200000917A1, “METHODS OF PHOTOCHEMICAL TREATMENT FOR WOUND HEALING” (The General Hospital Corporation, priority 2017, published 2020)
# How the values were obtained:
# [1] = test system: full-thickness, excisional 1 cm by 1 cm wounds on the dorsa of C57BL/6 mice; test: Wound contracture after photochemical treatment (area within tattooed wound perimeter); assay type: in vivo
# Experimental: (§1) By way of example, the above-described system 20 and method 10 were studied in comparison to untreated control wounds. The study was carried out according to the steps illustrated in FIG. 3. Generally, FIG. 3 illustrates a wound creation step 30, an activating agent delivery step 32, an illumination step 34, and a post-treatment step 36. More specifically, at step 30, full-thickness, excisional 1 cm by 1 cm wounds 38 were created on the dorsa of C57BL/6 mice 40 in both a control group of 16 mice and a test group of 16 mice. Additionally, dots 42 were tattooed on the skin around the wound perimeter in both the control and test groups (as shown in step 34) in order to monitor contracture over the course of wound healing. Following step 30, control group wounds were left alone to heal. With respect to the test group, at step 32, a Rose Bengal solution was painted onto wound beds 38 (e.g., as discussed above with respect to process block 12 of FIG. 1). At step 34, the wounds 38 were illuminated by an electromagnetic radiation source 26, in particular, a KTP laser having a 532-nanometer wavelength, with an energy output of 60 Joules per centimeter squared (e.g., as discussed above with respect to process block 14 of FIG. 1). Steps 32 and 34 were conducted immediately after wound creation at step 30. Step 36 illustrates the immediate result of wound treatment, that is, the photobleaching of Rose Bengal dye.
# To compare the test and control groups, the area within each tattooed wound perimeter was serially measured over 6 weeks and percent contracture was calculated. Additionally, at 7, 14, 21, and 42 days, mice were euthanized and tissue was harvested for histology.
# [2] = test system: full-thickness, excisional 1 cm by 1 cm wounds on the dorsa of C57BL/6 mice; test: Histology of harvested wound tissue after photochemical treatment; assay type: in vivo; conditions: days 7, 21 and 42 post wound creation; Rose Bengal solution + KTP laser 532 nm, 60 J/cm2
# Experimental: as §1, with “Steps 32 and 34 were conducted immediately after wound creation at step 30. Step 36 illustrates the immediate result of wound treatment, that is, the photobleaching of Rose Bengal dye.” left out
# To compare the test and control groups, the area within each tattooed wound perimeter was serially measured over 6 weeks and percent contracture was calculated. […]
compound,measurement,setting,value
O=C([O-])c1c(Cl)c(Cl)c(Cl)c(Cl)c1-c1c2cc(I)c(=O)c(I)c-2oc2c(I)c([O-])c(I)cc12.[Na+].[Na+] [Rose Bengal],more contracture in control wounds than in test group,[1]; by day 7,~20%
same,percent contracture,"[1]; day 7, Rose Bengal solution painted on wound bed, KTP laser 532 nm, 60 J/cm2, immediately after wound creation, control 80.3±8.5%, p=0.014",67.1±17.1%
same,wounds contracted to (percentage of initial area of skin around wound perimeter),"[1]; day 42, Rose Bengal solution + KTP laser 532 nm, 60 J/cm2, control 13.6±5.6%, p=0.003",35.2±2.9%
same,"fold difference in remaining area, test group versus control group","[1]; day 42, p=0.003",1.59 fold
same,histological review of wound tissue compared to control group tissue,[2],"increased ingrowth and development of dermal cells, increased vascularity, and appearance of skin appendages earlier and to a greater degree"
